Test results taken from paper PMC2950902 (Molecular Microbiology, 2010).

Legend:
P1 ParA [1] = biological target: T1, P1 ParA (Escherichia coli, UniProt P07620); experiment: tryptophan fluorescence change; format: binding; details: 1 mM nucleotide, Mg2+, 23°C
T1 sequence (P07620 1-398): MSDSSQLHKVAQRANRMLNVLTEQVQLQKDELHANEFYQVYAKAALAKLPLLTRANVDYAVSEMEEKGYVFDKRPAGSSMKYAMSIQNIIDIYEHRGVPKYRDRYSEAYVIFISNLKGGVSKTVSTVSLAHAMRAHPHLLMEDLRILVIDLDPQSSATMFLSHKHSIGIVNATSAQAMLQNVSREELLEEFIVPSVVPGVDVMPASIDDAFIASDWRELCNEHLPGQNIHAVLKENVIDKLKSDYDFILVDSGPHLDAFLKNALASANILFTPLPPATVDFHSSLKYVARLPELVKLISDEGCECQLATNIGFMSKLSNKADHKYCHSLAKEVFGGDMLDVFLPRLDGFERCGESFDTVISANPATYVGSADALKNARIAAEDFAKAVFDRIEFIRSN

P1 ParA [2] = biological target: T1, P1 ParA; experiment: MANT-nucleotide fluorescence; format: binding; details: unlabelled ADP

Row | Compound | tryptophan fluorescence change (P1 ParA [1]) | apparent Kd (P1 ParA [2])
1 | Nc1ncnc2c1ncn2[C@@H]1O[C@H](COP(=O)(O)OP(=O)(O)OP(O)(O)=S)[C@@H](O)[C@H]1O [ATPγS] | ADP and ATPγS induced a small but reproducible increase in fluorescence | 
2 | Nc1ncnc2c1ncn2[C@@H]1O[C@H](COP(=O)(O)OP(=O)(O)O)[C@@H](O)[C@H]1O [ADP] |  | MANT-ADP bound ParA with similar affinity as ADP
